Laboratory results as given in patent US12357711B2, “PSMA binding dual mode radiotracer and therapeutic” (Technische Universität München, priority 2019, dated 2025).
Where “and” joins values, the source holds several entries; their conditions need not be identical. Equal values may be shown once.

Experiments:
human serum albumin = biological target: T1, human serum albumin (Homo sapiens, UniProt P02768); test: HSA binding on Chiralpak HSA column; type: in vitro ADME; conditions: Chiralpak HSA column (50 × 3 mm, 5 μm)
T1 construct: purchased H13H-2433
Experimental: The mobile phase (A: NH4OAc, 50 mM in water, pH 7 and B: isopropanol) was freshly prepared for each experiment and only used for one day. The column was kept at room temperature and each run was stopped after detection of the signal to reduce the acquisition time. All substances were dissolved in a 0.5 mg/ml concentration in 50% 2-propanol and 50% 50 mM pH 6.9 ammonium acetate buffer. […] All nine reference substances were injected consecutively to establish a non-linear regression with Origin Pro 2016G.

patients = test: Human biodistribution and uptake in tumor lesions (PET/CT, SUV); type: in vivo; conditions: for ratio SUVmax to background, mean / ratio SUVmean to background, mean: human PET/CT, background gluteal muscle
Experimental: Human biodistribution was estimated by analysing clinical ^18F-rhPSMA-7- and ^18F-rhPSMA-7.3-PET/CT exams in 47 and 32 patients, respectively.
The mean and maximum standardized uptake values (SUVmean/SUVmax) were determined for background (gluteal muscle), normal organs (salivary glands, blood pool, lung, liver, spleen, pancreas, duodenum, kidney, bladder, bone) and three representative tumor lesions. Tumor uptake was analyzed in 89 lesions (26 primary tumors/local recurrences, 23 bone, 38 lymph node and 2 visceral metastases) and 63 lesions (14 primary tumors/local recurrences, 30 bone, 18 lymph node and 1 visceral metastases) for ^18F-rhPSMA-7 and ^18F-rhPSMA-7.3, respectively.
Organ-background and Tumor-background ratios were calculated.

[1] = clinical PET/CT, gluteal muscle
[2] = clinical PET/CT, non-diseased bone
[3] = clinical PET/CT, listed as 18F-rhPSMA-7.3

T1 sequence (P02768 25-609): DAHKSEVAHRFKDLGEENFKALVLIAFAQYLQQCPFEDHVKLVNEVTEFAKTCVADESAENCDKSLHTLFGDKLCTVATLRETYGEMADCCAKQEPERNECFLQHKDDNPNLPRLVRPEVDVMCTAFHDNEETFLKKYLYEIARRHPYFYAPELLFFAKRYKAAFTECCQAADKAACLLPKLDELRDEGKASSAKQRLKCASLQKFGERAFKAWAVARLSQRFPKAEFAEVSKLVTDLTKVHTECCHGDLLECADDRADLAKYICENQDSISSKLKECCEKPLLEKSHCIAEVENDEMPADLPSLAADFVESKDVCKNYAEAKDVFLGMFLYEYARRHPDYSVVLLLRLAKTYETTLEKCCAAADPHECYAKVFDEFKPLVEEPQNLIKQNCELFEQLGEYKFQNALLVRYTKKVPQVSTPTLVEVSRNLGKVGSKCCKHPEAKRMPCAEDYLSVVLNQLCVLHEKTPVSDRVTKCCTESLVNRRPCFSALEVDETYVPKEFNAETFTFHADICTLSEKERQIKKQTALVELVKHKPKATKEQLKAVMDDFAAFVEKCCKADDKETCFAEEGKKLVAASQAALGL

SMILES: CC(C)(C)[Si](F)(c1ccc(C(=O)NC[C@@H](NC(=O)CC[C@@H](C(=O)O)N2CCN(CC(=O)[O-])CCN(CC(=O)[O-])CCN(CC(=O)[O-])CC2)C(=O)N[C@H](CCCCNC(=O)CCC(=O)NCCC[C@@H](NC(=O)CC[C@H](NC(=O)N[C@@H](CCC(=O)O)C(=O)O)C(=O)O)C(=O)O)C(=O)O)cc1)C(C)(C)C.[Ga+3] [rhPSMA7.3, [^19F][^natGa]D-Dap-S-DOTAGA-rhPSMA7]
- HSA Binding (human serum albumin): 96.9%
- ratio SUVmax to background, mean (patients; bladder): 3.1
- ratio SUVmean to background, mean (patients; bladder): 3.1
- ratio SUVmax to background, mean (patients; bloodpool): 2.8
- ratio SUVmean to background, mean (patients; bloodpool): 2.9
- ratio SUVmax to background, mean (patients; bone): 2.0
- ratio SUVmean to background, mean (patients; bone): 2.1
- SUVmax bladder, max (patients; clinical PET/CT): 6.0
- SUVmax bladder, mean (patients; clinical PET/CT): 3.1
- SUVmax bladder, min (patients; clinical PET/CT): 1.1
- SUVmax bloodpool, max (patients; clinical PET/CT): 3.9
- SUVmax bloodpool, mean (patients; clinical PET/CT): 2.8
- SUVmax bloodpool, min (patients; clinical PET/CT): 1.9
- SUVmax duodenum, max (patients; clinical PET/CT): 32.2
- SUVmax duodenum, mean (patients; clinical PET/CT): 16.4
- SUVmax duodenum, min (patients; clinical PET/CT): 6.1
- SUVmax kidney, max (patients; clinical PET/CT): 99.9
- SUVmax kidney, mean (patients; clinical PET/CT): 51.9
- SUVmax kidney, min (patients; clinical PET/CT): 30.9
- SUVmax liver, max (patients; clinical PET/CT): 15.4
- SUVmax liver, mean (patients; clinical PET/CT): 9.7
- SUVmax liver, min (patients; clinical PET/CT): 4.6
- SUVmax lungs, max (patients; clinical PET/CT): 1.9
- SUVmax lungs, mean (patients; clinical PET/CT): 1.1
- SUVmax lungs, min (patients; clinical PET/CT): 0.7
- SUVmax pancreas, max (patients; clinical PET/CT): 7.8
- SUVmax pancreas, mean (patients; clinical PET/CT): 4.2
- SUVmax pancreas, min (patients; clinical PET/CT): 2.4
- SUVmax parotic gland, max (patients; clinical PET/CT): 38.3
- SUVmax parotic gland, mean (patients; clinical PET/CT): 24.6
- SUVmax parotic gland, min (patients; clinical PET/CT): 11.2
- SUVmax spleen, max (patients; clinical PET/CT): 22.5
- SUVmax spleen, mean (patients; clinical PET/CT): 11.4
- SUVmax spleen, min (patients; clinical PET/CT): 5.0
- SUVmax submandibular gland, max (patients; clinical PET/CT): 47.4
- SUVmax submandibular gland, mean (patients; clinical PET/CT): 28.4
- SUVmax submandibular gland, min (patients; clinical PET/CT): 14.6
- SUVmean bladder, max (patients; clinical PET/CT): 4.1
- SUVmean bladder, min (patients; clinical PET/CT): 0.7
- SUVmean bloodpool, max (patients; clinical PET/CT): 2.5
- SUVmean bloodpool, min (patients; clinical PET/CT): 1.3
- SUVmean duodenum, max (patients; clinical PET/CT): 23.0
- SUVmean duodenum, mean (patients; clinical PET/CT): 11.0
- SUVmean duodenum, min (patients; clinical PET/CT): 3.0
- SUVmean kidney, max (patients; clinical PET/CT): 70.6
- SUVmean kidney, mean (patients; clinical PET/CT): 35.5
- SUVmean kidney, min (patients; clinical PET/CT): 20.7
- SUVmean liver, max (patients; clinical PET/CT): 12.3
- SUVmean liver, mean (patients; clinical PET/CT): 7.3
- SUVmean liver, min (patients; clinical PET/CT): 3.2
- SUVmean lungs, max (patients; clinical PET/CT): 1.1
- SUVmean lungs, mean (patients; clinical PET/CT): 0.7
- SUVmean lungs, min (patients; clinical PET/CT): 0.4
- SUVmean pancreas, max (patients; clinical PET/CT): 5.2
- SUVmean pancreas, mean (patients; clinical PET/CT): 2.8
- SUVmean pancreas, min (patients; clinical PET/CT): 1.6
- SUVmean parotic gland, max (patients; clinical PET/CT): 25.0
- SUVmean parotic gland, mean (patients; clinical PET/CT): 16.0
- SUVmean parotic gland, min (patients; clinical PET/CT): 8.2
- SUVmean spleen, max (patients; clinical PET/CT): 17.9
- SUVmean spleen, mean (patients; clinical PET/CT): 8.5
- SUVmean spleen, min (patients; clinical PET/CT): 3.7
- SUVmean submandibular gland, max (patients; clinical PET/CT): 33.4
- SUVmean submandibular gland, mean (patients; clinical PET/CT): 19.6
- SUVmean submandibular gland, min (patients; clinical PET/CT): 10.4
- tracer retention in the bladder compared with ^18F-rhPSMA-7 (patients; clinical PET/CT): significantly lower
- uptake in tumor lesions compared with ^18F-rhPSMA-7 (patients; clinical PET/CT): significantly higher
- SUVmax background, max (patients; [1]): 1.7
- SUVmax background, mean (patients; [1]): 1.0
- SUVmax background, min (patients; [1]): 0.6
- SUVmean background, max (patients; [1]): 1.1
- SUVmean background, mean (patients; [1]): 0.7
- SUVmean background, min (patients; [1]): 0.4
- SUVmax bone, max (patients; [2]): 3.4
- SUVmax bone, mean (patients; [2]): 2.1
- SUVmax bone, min (patients; [2]): 1.1
- SUVmean bone, max (patients; [2]): 2.2
- SUVmean bone, mean (patients; [2]): 1.3
- SUVmean bone, min (patients; [2]): 0.7
- SUVmax tumor, max (patients; clinical PET/CT, tumor lesions): 316.0
- SUVmax tumor, mean (patients; clinical PET/CT, tumor lesions): 44.0
- SUVmax tumor, min (patients; clinical PET/CT, tumor lesions): 2.4
- SUVmean tumor, max (patients; clinical PET/CT, tumor lesions): 224.1
- SUVmean tumor, min (patients; clinical PET/CT, tumor lesions): 1.6
- SUVmean tumor, mean (patients; clinical PET/CT, tumor lesions, listed as 18F-rhPSMA-7.3): 32.5±42.7 and 32.5
- SUVmean bladder, mean (patients; [3]): 2.0 and 2.0±0.8
- SUVmean bloodpool, mean (patients; [3]): 1.9 and 1.8
- ratio SUVmax to background, mean (patients; duodenum): 16.2
- ratio SUVmean to background, mean (patients; duodenum): 17.1
- ratio SUVmax to background, mean (patients; kidney): 51.8
- ratio SUVmean to background, mean (patients; kidney): 55.6
- ratio SUVmax to background, mean (patients; liver): 9.7
- ratio SUVmean to background, mean (patients; liver): 11.4
- ratio SUVmax to background, mean (patients; lungs): 1.0
- ratio SUVmean to background, mean (patients; lungs): 1.0
- ratio SUVmax to background, mean (patients; pancreas): 4.1
- ratio SUVmean to background, mean (patients; pancreas): 4.4
- ratio SUVmax to background, mean (patients; parotid gland): 24.7
- ratio SUVmean to background, mean (patients; parotid gland): 25.2
- ratio SUVmax to background, mean (patients; spleen): 11.4
- ratio SUVmean to background, mean (patients; spleen): 13.3
- ratio SUVmax to background, mean (patients; submandibular gland): 28.2
- ratio SUVmean to background, mean (patients; submandibular gland): 30.6
- ratio SUVmax to background, mean (patients; tumor lesions): 43.6
- ratio SUVmean to background, mean (patients; tumor lesions): 50.8
